Format: physicochemical
Experimental: The new compounds of the invention have the considerable advantage of being soluble or capable of being solubilized in water, either in the form of parent substances or in the form of salts, at therapeutically useful levels, while at the same time retaining the general spectrum of antibacterial activity of synergistines. They are especially active in vitro against Staphylococcus aureus Smith at concentrations of between 8 and 125 μg/ml. A 10% aqueous solution of 5γ-deoxy-5γ-(3-dimethylaminopropyl)aminopristinamycin IA (product A) in the form of the hydrochloride is obtained with: […]

5γ-[N-(carboxymethyl)-methylamino]-5γ-deoxypristinamycin IA [product K]
concentration of aqueous solution obtained: 2%

Source: patent US4617290A, “Synergistine derivatives, their preparation and pharmaceutical compositions containing them” (Rhone-Poulenc Sante, priority 1983, dated 1986)
